In paper PMC8829872 (Cancer chemotherapy and pharmacology, 2022):
pIC50: −log10 of the molar value. Read-outs that look alike come from different tables or passages of the source.

Tests used:
[1] = in vivo; conditions: Balb/c, mouse
Protocol: (§1) The vehicle for all groups was 10% DMSO, 40% propylene glycol, and 50% dH2O. […] Mice were euthanized by CO2 inhalation and the following tissues collected: blood, liver, kidney, lung, skeletal muscle, and brain.
(§2) Duplicate standard curves with calibrators consisting of 0.3, 1, 3, 10, 30 100, 300, and 1,000 ng/mL, in addition to blank plasma, were prepared fresh on days of analysis using control Balb/c mouse plasma (Innovative Research, Novi, MI). QCs were prepared in bulk and stored at −80 °C, with concentrations of 0.8 (QCL), 20 (QCM), and 800 ng/mL (QCH). […] The injection volume was 3 μL. […] Curve fitting was accomplished through linear regression with 1/y^2 weighting. Semi-quantitation of metabolites was accomplished by reporting IS normalized metabolite response.
(§3) Noncompartmental (NC) PK was determined using GraphPad Prism (San Diego, CA) using the linear trapezoidal method and Bailer method of AUC determination for estimates of exposure in plasma, RBC, tumors, and tissues [24]. PK parameters or analysis requiring dose were adjusted for the actual dose as determined using measurements of dosing solution. Dose-normalized plasma exposures, Cmax and AUC, of PO treated groups of the dose linearity studies were compared using ANOVA tests to determine dose linearity.
(§4) Tissue partition coefficients (PTissue) and RBC partitioning (PRBC) were calculated using Eq. (1) and tested among PO treated groups using ANOVA tests.
(§5) The resulting concentrations were multiplied by the volume or weight to convert to a total amount and then divided by 3 to account for the number of mice per cage. These amounts were then divided by the average total amount of drug administered to calculate the percent excreted by urine and feces, see Eq. (2). Renal clearance (ClR) was calculated by dividing the excreted amount by the plasma AUC, see Eq. (3) [25].
(§6) When available, plasma metabolite data was used to determine semi-quantitative exposure as well as metabolic ratios, using Eq. (4). The MR among PO treated groups in the dose linearity studies were compared using ANOVA testing. Metabolite presence was also analyzed in urine and feces.

[2] = generally reported, cited from earlier work
[3] = Unified compartmental PK model (ADAPT5); set-up: species or system mice; conditions: for bioavailability: Balb/c, mouse, plasma, read-out: Model F (compartmental bioavailability)
Protocol: A unified compartmental PK model was developed using ADAPT5 [28] to fit the data, […]. Naïve-pooled concentration-time data from each study was used to estimate PK parameters that were shared between each treatment group. Model performance was determined and reported using parameter CV%, R^2, AIC (Akaike information criterion), as well as visually inspected with standardized residual plots. […] The amount of drug ultimately collected in this compartment allowed for calculation of the bioavailability. The developed model was then used to simulate expected plasma concentrations in the extensive PK study. Separately, tumor and plasma time concentration data from the extensive PK study was used to extend this model to add an uncoupled tumor compartment.

[4] = mouse, in vivo
Protocol: as §1, §2, §3, §4, §5, §6

[5] = system: human liver microsomes (HLMs); conditions: cited from earlier work
[6] = Intestinal contribution to oral bioavailability (hepatic and gut contributions calculated from IV PK); type: in vivo, mice; conditions: 10 mg/kg IV
Protocol: The contribution of gut to oral bioavailability was estimated by calculating the contribution of liver processes to bioavailability from IV data and stripping this contribution from the observed bioavailabilities. Assuming IV drug clearance was restricted to hepatic processes, the predicted bioavailability based solely on liver processes, FH, was calculated from IV PK. […] Fe was derived from the amount of drug measured in urine (Ae) and the total amount of drug administered, see Eq. (7). ClBlood was defined by multiplying the observed plasma clearance (Clplasma) by the ratio of plasma exposure (AUCplasma) to total blood exposure (AUCBlood), see Eq. (8). AUCBlood was calculated using hematocrit (HCT) to construct total blood exposure contributions from exposure in RBC (AUCRBC) and plasma, see Eq. (9).

[7] = cited from earlier work; for dose proportionality in exposure: single agent
[8] = extensive PK study, model with uncoupled tumor compartment
[9] = non-linear model, dose linearity and bioavailability studies

Structure (SMILES): C[C@@H]1COCCN1c1cc(C2([S@](C)(=N)=O)CC2)nc(-c2cc[nH]c3nccc2-3)n1 [AZD6738]
- half-life [1]: 1.57 to 2.17 h
- AUC(0-inf) ([1]; iv, 10 mg/kg): 5620 ng·h/mL
- CL renal ([1]; iv, 10 mg/kg): 0.661 mL/min/kg
- Cmax ([1]; iv, 10 mg/kg): 7040 ng/mL
- Tmax ([1]; iv, 10 mg/kg): 0.0833 h
- Vd ([1]; iv, 10 mg/kg): 4.92 L/kg
- half-life ([1]; iv, 10 mg/kg): 1.64 h
- AUC(0-inf) ([1]; po, 2 mg/kg): 423 ng·h/mL
- CL renal ([1]; po, 2 mg/kg): 1.97 mL/min/kg
- Cmax ([1]; po, 2 mg/kg): 160 ng/mL
- Tmax ([1]; po, 2 mg/kg): 1 h
- bioavailability ([1]; po, 2 mg/kg): 45.7%
- half-life ([1]; po, 2 mg/kg): 1.73 h
- AUC(0-inf) ([1]; po, 7.5 mg/kg): 2400 ng·h/mL
- CL renal ([1]; po, 7.5 mg/kg): 1.88 mL/min/kg
- Cmax ([1]; po, 7.5 mg/kg): 1460 ng/mL
- Tmax ([1]; po, 7.5 mg/kg): 0.25 h
- bioavailability ([1]; po, 7.5 mg/kg): 58.8%
- half-life ([1]; po, 7.5 mg/kg): 2.17 h
- AUC(0-inf) ([1]; po, 20 mg/kg): 9630 ng·h/mL
- CL renal ([1]; po, 20 mg/kg): 1.53 mL/min/kg
- Cmax ([1]; po, 20 mg/kg): 4960 ng/mL
- Tmax ([1]; po, 20 mg/kg): 0.25 h
- bioavailability ([1]; po, 20 mg/kg): 85.5%
- half-life ([1]; po, 20 mg/kg): 1.57 h
- AUC(0-inf) ([1]; po, 75 mg/kg): 41600 ng·h/mL
- CL renal ([1]; po, 75 mg/kg): 1.14 mL/min/kg
- Cmax ([1]; po, 75 mg/kg): 12000 ng/mL
- Tmax ([1]; po, 75 mg/kg): 0.25 h
- bioavailability ([1]; po, 75 mg/kg): 95.2%
- half-life ([1]; po, 75 mg/kg): 1.93 h
- cell based IC50s [2]: below 413 ng/mL
- pIC50 ([2]; read-out: cell based IC50s): > 6.00
- bioavailability ([3]; 2 mg/kg PO): 40.4%
- bioavailability ([3]; 7.5 mg/kg PO): 61.5%
- bioavailability ([3]; 20 mg/kg PO): 80.4%
- bioavailability ([3]; 75 mg/kg PO): 90.8%
- Ka (fixed to dose linearity model estimate) [3, 8]: 0.234 min⁻¹
- Kct (model estimate) [3, 8]: 0.325 min⁻¹
- Ktc (model estimate) [3, 8]: 0.0537 min⁻¹
- Vc (model estimate) [3, 8]: 5.04 L/kg
- Ka (model estimate) [3, 9]: 0.234 min⁻¹
- Km (model estimate, pre-systemic saturable efflux/metabolism) [3, 9]: 157 ng
- Kna (model estimate) [3, 9]: 0.0120 min⁻¹
- Vc (model estimate) [3, 9]: 1.91 L/kg
- Vmax (model estimate, pre-systemic saturable efflux/metabolism) [3, 9]: 1238 ng/min
- Vp (model estimate) [3, 9]: 2.61 L/kg
- Renal excretion of unaltered drug ([4]; Balb/c): < 4 % of dose
- decrease of apparent clearance (Cl/F/kg) ([4]; Balb/c, po): approximately 50%
- decrease of apparent volume of distribution (Vd/F/kg) ([4]; Balb/c, po): approximately 50%
- excreted unchanged in the feces ([4]; Balb/c, po): 9.2-15.7 % of dose
- Cl ([4]; Balb/c, po, 2 mg/kg): 75.7 mL/min/kg
- Vd ([4]; Balb/c, po, 2 mg/kg): 11.4 L/kg
- Cl ([4]; Balb/c, po, 7.5 mg/kg): 58.8 mL/min/kg
- Vd ([4]; Balb/c, po, 7.5 mg/kg): 11.0 L/kg
- Cl ([4]; Balb/c, po, 20 mg/kg): 40.4 mL/min/kg
- Vd ([4]; Balb/c, po, 20 mg/kg): 5.50 L/kg
- Cl ([4]; Balb/c, po, 75 mg/kg): 36.3 mL/min/kg
- Vd ([4]; Balb/c, po, 75 mg/kg): 6.06 L/kg
- Partitioning to lung, PO groups compared to the IV group [4]: approximately two-fold higher
- Penetration into the brain [4]: limited
- enzymes of oxidative deimination to the primary sulfoxide metabolite [5]: CYP2C8/2J2
- ClBlood [6]: 0.550 mL/min
- Amount excreted, Ae ([6]; urine): 4.00 µg
- Fraction excreted, Fe ([6]; urine): 0.0191
- clearance ([6]; Balb/c, plasma, average mouse size 18.3 g, read-out: ClPlasma): 0.634 mL/min
- dose proportionality ([7]; BID with olaparib and durvalumab, 60 to 240 mg): dose proportionality
- dose limiting toxicity (DLT) ([7]; clinical studies): thrombocytopenia
- concentration at which monocyte and thrombocyte decreases occurred (PK-PD model) ([7]; clinical, increased up to 10 μg/mL): 2500 ng/mL
- dose proportionality in exposure ([7]; 20 to 40 mg BID): greater than proportional increases
- dose proportionality in exposure ([7]; 80 to 240 mg BID): approximate dose proportionality
